The numbers were not newly measured in patent US9382205B2, “Processes for the manufacture of a pharmaceutically active agent” (H. Lundbeck A/S, priority 2009, dated 2016), which cites them from elsewhere.

The target in one data set is human 5-HT6 receptor. The settings on record: from Roth et al. 1994.
For data set [1] the following is noted: Rogers et al. 1999.
Another data set deals with Alzheimer's patients. To be noted: first report.

In general, Ki refers to the equilibrium dissociation constant of an inhibitor or competing ligand from its target. For the compound `CN(C)CCC=C1c2ccccc2CCc2ccccc21` [amitriptyline], the inhibitory constant (Ki) at human 5-HT6 receptor was 65 nM.
For the compound `COc1ccc(NS(=O)(=O)c2sc3ccc(Cl)cc3c2C)cc1N1CCNCC1` [SB-271046], the “spatial alternation operant behavior test” value with aged rats was “improvements”. Moreover, in data set [1], the “performance in the Morris water maze” value was “improved performance”.
For `O=S(=O)(c1ccccc1)c1cnc2c(N3CCNCC3)cccc2c1` [SB-742457], the clinical benefit entry in the data set on Alzheimer's patients is listed as “of clinical benefit”.
